Reference: ChEMBL document CHEMBL1134801, “Dibasic inhibitors of human mast cell tryptase. Part 3: identification of a series of potent and selective inhibitors containing the benzamidine functionality” (Bioorg Med Chem Lett, 2001)
pKi: −log10 of the molar value.

Key:
[1] = target: Trypsin (Homo sapiens, UniProt P07477+P07478+P35030); assay: Inhibition of trypsin in human mast cells; assay type: cell-based
[2] = target: Prothrombin (Homo sapiens, UniProt P00734); assay: Inhibition of thrombin in human mast cells; assay type: cell-based
[3] = target: Tryptase (Homo sapiens, UniProt Q9BZJ3+Q15661+Q9NRR2); assay: Inhibition of Tryptase in human mast cells; assay type: cell-based
[4] = target: Plasminogen (Homo sapiens, UniProt P00747); assay: Inhibition plasmin in human mast cells; assay type: cell-based
Chain of Plasminogen (P00747 97-580 limits assumed): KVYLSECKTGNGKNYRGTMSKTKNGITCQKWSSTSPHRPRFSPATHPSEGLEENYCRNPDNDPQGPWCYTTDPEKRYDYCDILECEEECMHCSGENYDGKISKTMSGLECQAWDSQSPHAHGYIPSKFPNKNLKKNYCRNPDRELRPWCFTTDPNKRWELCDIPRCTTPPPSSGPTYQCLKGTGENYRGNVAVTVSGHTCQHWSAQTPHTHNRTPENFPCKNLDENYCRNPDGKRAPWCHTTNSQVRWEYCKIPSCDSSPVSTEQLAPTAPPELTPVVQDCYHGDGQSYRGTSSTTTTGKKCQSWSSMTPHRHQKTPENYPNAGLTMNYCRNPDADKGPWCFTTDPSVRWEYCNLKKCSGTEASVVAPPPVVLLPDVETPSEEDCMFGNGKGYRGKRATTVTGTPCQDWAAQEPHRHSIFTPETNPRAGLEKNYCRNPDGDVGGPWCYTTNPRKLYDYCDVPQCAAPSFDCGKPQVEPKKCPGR
Chain of Plasminogen (P00747 581-810 limits assumed): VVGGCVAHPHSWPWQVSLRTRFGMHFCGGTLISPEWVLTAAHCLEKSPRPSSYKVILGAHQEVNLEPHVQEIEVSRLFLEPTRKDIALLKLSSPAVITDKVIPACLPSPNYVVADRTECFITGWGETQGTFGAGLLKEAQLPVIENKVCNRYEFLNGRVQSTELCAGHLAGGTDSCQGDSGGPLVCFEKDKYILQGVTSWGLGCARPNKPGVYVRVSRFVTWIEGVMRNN

[5] = Michaelis-Menten constant was determined for the compound after incubation with plasma amine oxidase; assay type: ADME, cell-free

Ki [1] | pKi [2] | Ki [3] | pKi [4] | Vmax / Km [5] | Compound
554 µM | 3.25 | 0.0406 µM | < 3.00 |  | COC(=O)NC(=N)c1ccc(CNC(=O)N2CCN(C(=O)O[C@H]3CCC[C@@H](OC(=O)N4CCN(C(=O)NCCC5CCNCC5)CC4)CCC3)CC2)cc1
63.1 µM | 4.03 | 0.0067 µM | < 3.00 |  | N=C(N)c1ccc(CC(=O)N2CCN(C(=O)O[C@H]3CCC[C@@H](OC(=O)N4CCN(C(=O)NCCC5CCNCC5)CC4)CCC3)CC2)cc1
52.1 µM | 3.99 | 0.00112 µM | 3.51 |  | N=C(N)c1ccc(CNC(=O)N2CCN(C(=O)O[C@H]3CCC[C@@H](OC(=O)N4CCN(C(=O)CCCC5CCNCC5)CC4)CCC3)CC2)cc1
4.67 µM | 4.68 | 0.00085 µM | 4.21 |  | N=C(N)c1ccc(C(=O)NCC2CCN(C(=O)O[C@H]3CCC[C@@H](OC(=O)N4CCC(CNC(=O)c5ccc(C(=N)N)cc5)CC4)CCC3)CC2)cc1
47.2 µM | 3.95 | 0.00091 µM | 3.54 |  | N=C(N)c1ccc(CNC(=O)N2CCN(C(=O)O[C@H]3CCC[C@@H](OC(=O)N4CCN(C(=O)NCCC5CCNCC5)CC4)CCC3)CC2)cc1
25 µM |  | 0.0087 µM |  |  | N=C(N)c1ccc(CNC(=O)N2CCN(C(=O)O[C@H]3CCC[C@@H](OC(=O)N4CCN(C(=O)NCc5ccc(C(=N)N)cc5)CC4)CCC3)CC2)cc1

The next lines start with the compound.

Compound | Ki [1] | pKi [2] | Ki [3] | pKi [4] | Vmax / Km [5]
N=C(N)N1CCC(CNC(=O)CNC(=O)OCc2ccc(COC(=O)NCC(=O)NCC3CCN(C(=N)N)CC3)cc2)CC1 | 466 µM | 3.41 | 0.155 µM | < 3.00 | 
N=C(N)c1ccc(S(=O)(=O)NCC2CCN(C(=O)O[C@H]3CCC[C@@H](OC(=O)N4CCN(C(=O)NCCC5CCNCC5)CC4)CCC3)CC2)cc1 | 16.8 µM | < 3.00 | 0.028 µM | < 3.00 | 
N=C(N)N1CCC(CCNC(=O)CNC(=O)OCc2ccc(COC(=O)NCC(=O)NCCC3CCN(C(=N)N)CC3)cc2)CC1 | > 1000 µM | 3.37 | 0.11 µM | < 3.00 | 
N=C(N)c1ccc(C(=O)NCC2CCN(C(=O)O[C@H]3CCC[C@@H](OC(=O)N4CCN(C(=O)NCCC5CCNCC5)CC4)CCC3)CC2)cc1 | 38.8 µM | 4.39 | 0.016 µM | 3.55 | 
N=C(N)c1ccc(C(=O)NCC2CCN(C(=O)O[C@H]3CCC[C@@H](OC(=O)N4CCN(C(=O)CCCC5CCNCC5)CC4)CCC3)CC2)cc1 | 37.4 µM | 4.50 | 0.0164 µM | 3.49 | 
N=C(N)c1ccc(NC(=O)CC2CCN(C(=O)O[C@H]3CCC[C@@H](OC(=O)N4CCN(C(=O)NCCC5CCNCC5)CC4)CCC3)CC2)cc1 | 21.1 µM | 4.28 | 0.0089 µM | 3.53 | 
NCC1CCN(C(=O)NCC2CCN(C(=O)OCc3ccc(COC(=O)N4CCC(CNC(=O)N5CCC(CN)CC5)CC4)cc3)CC2)CC1 | 515 µM | < 3.00 | 0.024 µM | < 3.00 | 1870
NCC1CCN(C(=O)NCCCCNC(=O)OCc2ccc(COC(=O)NCCCCNC(=O)N3CCC(CN)CC3)cc2)CC1 | > 1000 µM | < 3.00 | 0.112 µM | < 3.00 | 
N=C(N)c1ccc(C(=O)NCC2CCN(C(=O)OCc3ccc(COC(=O)N4CCC(CNC(=O)c5ccc(C(=N)N)cc5)CC4)cc3)CC2)cc1 | 4.4 µM | 4.37 |  | 8.22 | 
